Test results as given in patent publication US20250275918A1, “LIPID COMPOSITIONS AND METHODS FOR NUCLEIC ACID DELIVERY” (GREENLIGHT BIOSCIENCES, INC., priority 2022, published 2025).

Assays:
Hek 293 FT cells = assay: LDH toxicity assay; assay type: cell-based; conditions: two separate batches
Experimental: GILP-133 was tested in an assay to measure the level of lactate dehydrogenase (LDH), also known as lactic acid dehydrogenase. The LDH assay protocol is based on an enzymatic coupling reaction: LDH released from the cell oxidizes lactate to generate NADH, which then reacts with WST to generate a yellow color. The intensity of the generated color correlates directly with the number of lysed cells. This gives an indication of cytotoxicity, looking at the % of viable cells remaining. In this testing, Hek 293 FT cells were used 10 uL 1% Triton was added to positive control wells and incubated for 5 min. 50 uL cell culture medium was transferred to black 96-well plate. 50 uL LDH assay solution is added and incubated for 10 min at room temperature. Subsequently 50 ul stop solution was added and fluorescence intensity was read using a microplate reader.

[1] = Hemolysis assay (endosomal escape ability of LNPs); assay type: cell-based; conditions: pH 7.4; LNPs formulated with the lipid
Experimental: (§1) The formulation was kept at 4° C. until used in the luciferase expression assay to evaluate LNP's potency, and for toxicity using LDH assay in the HeLa and HEK293 cells. LNPs were used in the TNS assay to determine the experimental (apparent) pKa of the ionizable lipid. Hemolysis assay was used to determine the indirect endosomal escape (EE) capability of the LNPs. LNPs were evaluated in vivo for luciferase expression 6 h and 24 h post-dose in mice through i.m. injection at […]. Mice were sacrificed at the end point and then organs were harvested for ex-vivo imaging.
FIG. 6 illustrates endosomal escape ability of LNPs formulated using the ionizable lipids using a hemolysis assay.

mice = assay: Animal luciferase expression study, intramuscular injection, IVIS imaging; assay type: in vivo; conditions: i.m., 5 μg of mRNA per mouse, organs at 24 h, compared to all GIL-133 formulations
Experimental: as §1
These samples were injected to mice through intramuscular injection at the leg site at a dose of 5 μg of mRNA per mouse. Compositions with control LNP of FIG. 7 were used as positive control. At 6 h and 24 h post injection, the mice were subjected to IVIS imaging system to take the whole-body image. […] The same trend was found in the whole-body imaging results.
At 24 h, the mice were sacrificed, and the main organs include heart, liver, spleen, lung, kidneys, muscle, dLNs and ndLNs were collected and imaged. […] All results are shown in 11A, 11B, 11C, 11D, and 11E.

CCCCCCCCC(CCCCCC)C(=O)OCCCCCCCN(C)[C@@H]1CCCC[C@H]1N(C)CCCCCCCOC(=O)C(CCCCCC)CCCCCCCC (stereo partly drawn) [GILP-133, (((1R,2S)-cyclohexane-1,2-diyl)bis(methylazanediyl))bis(heptane-7,1-diyl)bis(2-hexyldecanoate)]
% cell viability compared to control cationic lipid of FIG. 7 (Hek 293 FT cells): equivalent % cell viability

CCCCCCCCC(CCCCCC)C(=O)OCCCCCCCN(CC)CCCN(CC)CCCCCCCOC(=O)C(CCCCCC)CCCCCCCC (centres unmarked) [GILP-126, (propane-1,3-diylbis(ethylazanediyl))bis(heptane-7,1-diyl)bis(2-hexyldecanoate)]
hemolysis at neutral pH [1]: negligible hemolysis

CCCCCCCCCCCOC(=O)CCCCCN(CCO)CCCCCCCC(=O)OC(CCCCCCCC)CCCCCCCC [positive control, heptadecan-9-yl 8-[2-hydroxyethyl-(6-oxo-6-undecoxyhexyl)amino]octanoate]
luciferase expression in ndLNs (mice): higher level of luciferase expression | luciferase expression in spleen (mice): higher level of luciferase expression

CCCCCCCCC(CCCCCC)C(=O)OCCCCCCCN(C)CCCN(C)CCCCCCCOC(=O)C(CCCCCC)CCCCCCCC (centres unmarked) [GILP-124, (propane-1,3-diylbis(methylazanediyl))bis(heptane-7,1-diyl)bis(2-hexyldecanoate)]
hemolysis at neutral pH [1]: negligible hemolysis
